PubChem BioAssay AID588780 (Sanford-Burnham Center for Chemical Genomics, 2011)
Activity calls are given as the source filed them.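 How the source made its calls: active means compounds whose fitted half-maximal concentration in the cell-protection dose series is at or below a set limit; inactive means the rest.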

These compounds were tested on H9c2 cardiomyocytes, 2-deoxyglucose stress, ATP luminescence, 2 h (assay: H9c2 cell survival under 2-deoxyglucose stress – uHTS hits, dose response (AID 588780)).
In the case of `COc1ccc(C(=O)COc2ccccc2C(N)=O)cc1`, the IC50 is reported as > 79 µM (inactive). With `Cc1cccc(NC(=O)c2nc[nH]c2C(=O)NCCCCNC(=O)c2[nH]cnc2C(=O)Nc2cccc(C)c2)c1` the IC50 was > 79 µM (inactive). `O=C(COc1cccc2c1CCNC2=O)Nc1cccc(F)c1` was tested, and the IC50 was 28 µM. `COCCN1CCN(c2c3c(nc4cc(-c5cccc(F)c5)nn24)CCC3)CC1` was tested, and the IC50 was 60.1 µM (inactive). `CCOc1ccc(C(=O)COC(=O)Cn2[nH]c(=O)c3ccccc3c2=O)cc1` was tested, and the IC50 was > 79 µM (inactive). With `CC(OC(=O)Cn1[nH]c(=O)c2ccccc2c1=O)C(=O)Nc1ccccc1[N+](=O)[O-]` (centres undefined) the IC50 was 27.9 µM. For `C[C@H](CO)N1C[C@H](C)[C@@H](CN(C)S(=O)(=O)c2ccc(F)cc2)Oc2ccc(NC(=O)Nc3ccc4c(c3)OCO4)cc2C1=O`, the IC50 was 36 µM (inactive). With `CCOc1ccc(CC(=O)Nc2c(C(N)=O)oc3ccc(Br)cc23)cc1OCC` the IC50 was > 79 µM (inactive). With `CCC(=O)Oc1ccc2c(C)cc(=O)oc2c1C` the IC50 was > 79 µM (inactive). With `O=C(Nc1cccnc1)c1sc(Nc2ccccc2)nc1-c1ccccc1` the IC50 was > 79 µM (inactive). `O=C(COC(=O)CCc1nc2ccccc2c(=O)[nH]1)NCc1ccc(F)cc1` was tested, and the IC50 was > 79 µM (inactive). `O=C(Nc1ccccc1C(=O)Nc1ccccc1C(=O)NCc1ccco1)c1ccco1` was tested, and the IC50 was 8.02 µM. `O=C(CCn1nc(-c2ccccc2)c2ccccc2c1=O)N1CCN(c2ccccc2)CC1` was tested, and the IC50 was > 79 µM (inactive). `O=C1NC(c2ccc(Cl)c([N+](=O)[O-])c2)Nc2ccccc21` (centres undefined) was tested, and the IC50 was > 79 µM (inactive). With `O=c1c2ccccc2nc(-c2ccc(Cl)c(Cl)c2)n1O` the IC50 was 8.16 µM. With `CC/C(C)=N\N=C\c1c(O)n(CC)c2cc(C3=NNC(=O)CC3)ccc12` the IC50 was 32.4 µM (inactive). `Cc1ccc(NC(=O)CSC(C)C(=O)OCc2cc(=O)oc3cc(O)ccc23)cc1` (centres undefined) was tested, and the IC50 was > 79 µM (inactive). For `Cc1ccc2c(c1)CCCN2C(=O)CCc1nc2ccccc2c(=O)[nH]1`, the IC50 was 9.06 µM. `O=C(Nc1nc(-c2ccccn2)cs1)c1ccccc1-n1cnnn1` was tested, and the IC50 was > 79 µM (inactive). For `Oc1c(Br)cc(Br)cc1C=NCc1ccc(F)cc1`, the IC50 was > 79 µM (inactive). For `CCC(CC)C(=O)N(CCc1ccc(OC)cc1)Cc1nc2ccccc2c(=O)[nH]1`, the IC50 was > 79 µM (inactive). `CCCc1nc2ccccc2c(C(=O)OCc2nnc(-c3cc(OC)c(OC)c(OC)c3)o2)c1CC` was tested, and the IC50 was 11 µM. `COc1ccc(N(CC(=O)N/N=C/c2cccs2)S(=O)(=O)c2ccc(OC)c(OC)c2)cc1` showed an IC50 of 27.8 µM. In the case of `Cc1cc(C)c(S(=O)(=O)N2CCN(C(=O)c3cc(=O)[nH]c4ccccc34)CC2)c(C)c1`, the IC50 is reported as 19.3 µM. `COc1ccc(-c2cc(-c3nnc(COC(=O)c4ccncc4)o3)c3ccccc3n2)cc1OC` gave an IC50 of 11.4 µM. `COc1ccc(C(=O)Nc2cccc(NC(=O)c3ccc(OC)c(OC)c3)n2)cc1OC` was tested, and the IC50 was > 79 µM (inactive). For `COc1cccc(NC(=O)c2oc3ccc(S(=O)(=O)N4CCOCC4)cc3c2C)c1`, the IC50 was > 79 µM (inactive). For `COc1ccc(OC)c(Nc2nc(N)nc(-c3cc4ccccc4o3)n2)c1`, the IC50 was > 79 µM (inactive). In the case of `O=C(N/N=C/c1ccccn1)c1cccs1`, the IC50 is reported as > 79 µM (inactive). `COc1ccc(Nc2nnc(SCc3cc(=O)n4ccsc4n3)s2)cc1` showed an IC50 of 14.1 µM. With `Cc1ccc(NC(=O)c2cc(=O)c3ccccc3o2)cc1S(=O)(=O)N1CCOCC1` the IC50 was 35.4 µM (inactive). In the case of `O=c1[nH]c(CSc2nnc(-c3cccnc3)n2C2CCCCC2)nc2ccccc12`, the IC50 is reported as > 79 µM (inactive). In the case of `C#CCOc1nc(Nc2cccc([N+](=O)[O-])c2)nc(OCC#C)n1`, the IC50 is reported as > 79 µM (inactive). With `COc1cc(C)cc2oc(=O)c(CC(=O)N3CCN(C(=O)C4COc5ccccc5O4)CC3)c(C)c12` (centres undefined) the IC50 was 34.9 µM (inactive). `COc1cc(-c2nnc(-c3cc(OC)c(OC)c(OC)c3)o2)cc(OC)c1OC` was tested, and the IC50 was > 79 µM (inactive). With `Cc1c(Cl)cccc1NC(=O)CNC(=O)Cc1n[nH]c(=O)c2ccccc12` the IC50 was > 79 µM (inactive). With `Cn1c(=O)[nH]c(=O)c2c1nc(N(CCO)Cc1ccccc1)n2CCCc1ccccc1` the IC50 was > 79 µM (inactive). With `O=C(CCc1nc2ccccc2c(=O)[nH]1)N1CCN(S(=O)(=O)c2cc(Cl)ccc2Cl)CC1` the IC50 was > 79 µM (inactive). In the case of `O=c1[nH]nc(-c2ccc(NCCO)c([N+](=O)[O-])c2)c2ccccc12`, the IC50 is reported as > 79 µM (inactive). For `Cc1c(/C=N/NC(=O)c2ccc(O)cc2)c2ccccn2c1C(=O)c1ccc(F)cc1`, the IC50 was > 79 µM (inactive). With `O=C(CSc1nc2ccccc2c(=O)[nH]1)N1CCOCC1` the IC50 was > 79 µM (inactive). `N#C/C(=C\c1cn(-c2ccccc2)nc1-c1cccnc1)c1nnc2n1CCCCC2` gave an IC50 of 21.7 µM. With `CCC(=O)Oc1cccc(C(=O)Nc2ccc(-c3nnc(-c4ccco4)o3)cc2)c1` the IC50 was > 79 µM (inactive). In the case of `CC(C)Cn1c(N)c(C(=O)COC(=O)CCc2nc3ccccc3c(=O)[nH]2)c(=O)n(C)c1=O`, the IC50 is reported as > 79 µM (inactive). With `Cc1ccccc1N(C(=O)c1snc(C(N)=O)c1N)C(C(=O)NCc1ccccc1)c1ccc(O)cc1` (centres undefined) the IC50 was 17.8 µM. With `COc1cc2nc(Nc3ccc(F)cc3)nc(N)c2cc1OC` the IC50 was 42.9 µM (inactive). `COc1ccc(-c2csc(NC(=O)CCn3cnc4ccccc4c3=O)n2)cc1OC` was tested, and the IC50 was > 79 µM (inactive). With `CC(=O)Nc1ccc(S(=O)(=O)N(Cc2cccnc2)Cc2cc3ccccc3[nH]c2=O)cc1` the IC50 was > 79 µM (inactive). `Cc1cccc(C(=O)N/N=C2\CS(=O)(=O)N(C)c3ccsc32)c1` gave an IC50 of 6.21 µM. Compound `O=C(CSc1ccc2nnc(-c3ccc(F)cc3)n2n1)N1CCCc2ccccc21` has an IC50 of 13.4 µM. For `COc1ccc(-c2cc(=O)oc3c(C)c(O)c(CN(C)C)cc23)cc1`, the IC50 was > 79 µM (inactive). For `Cc1c(C(=O)NCC2COc3ccccc3O2)oc2ccc(S(=O)(=O)N3CCOCC3)cc12` (centres undefined), the IC50 was > 79 µM (inactive). Compound `C=CCOC(=O)C1=C[C@H](c2cn(C(C)=O)c3ccccc23)C[C@H](OCc2ccc(CO)cc2)O1` has an IC50 of 17.9 µM. For `CC(=O)c1ccccc1OCC(O)CN1CCN(CCN2C(=O)c3cccc4cccc(c34)C2=O)CC1` (centres undefined), the IC50 was > 79 µM (inactive). In the case of `CC(=O)Nc1cccc(/C(C)=N/NC(=O)c2cccs2)c1`, the IC50 is reported as > 79 µM (inactive). In the case of `CC(=O)Oc1ccc2c(C)cc(=O)oc2c1`, the IC50 is reported as > 79 µM (inactive). `O=C(NC1CCCCC1)C(c1ccc2ncccc2c1)N(Cc1cccs1)C(=O)c1cccs1` (centres undefined) gave an IC50 of 22 µM. `Cn1c(=O)c2c(nc(NCc3ccc4c(c3)OCO4)n2C)n(C)c1=O` was tested, and the IC50 was > 79 µM (inactive). `CCCn1c(NC(=O)c2ccccc2)nc2ccccc21` was tested, and the IC50 was > 79 µM (inactive). `CCOC(=O)C1CCN(c2cc3c(cc2NC(=O)c2ccc(OC)c(OC)c2)n(C)c(=O)n3C)CC1` was tested, and the IC50 was > 79 µM (inactive). `Cn1c(=O)c2[nH]c(NN=Cc3ccc(Br)cc3)nc2n(C)c1=O` was tested, and the IC50 was > 79 µM (inactive). Compound `COc1cccc(-c2cnc3c(NC=O)cc(-c4cccc(C(=O)N(C)C)c4)cn23)c1` has an IC50 of 12.3 µM. `COC(=O)Cn1c(=NC(=O)c2cc(-c3cccs3)nc3ccccc23)sc2cc(S(N)(=O)=O)ccc21` was tested, and the IC50 was 6.88 µM. For `COc1cc(/C=C(\C#N)C(=O)Nc2ccccc2)ccc1OCCN1CCOCC1`, the IC50 was 28.4 µM. `COc1cc(-c2cc(C(=O)N3CCN(c4ccccn4)CC3)c3ccccc3n2)cc(OC)c1OC` showed an IC50 of 14.4 µM. In the case of `Cc1cccc(/N=C/c2c(O)ccc3oc4c(c23)CCCC4)n1`, the IC50 is reported as > 79 µM (inactive). With `CC12C=CC(=O)CC1CCC1C2CCC2(C)C(O)C(O)CC12` (centres undefined) the IC50 was 12.3 µM. In the case of `COc1ccc(-c2oc(=O)c3cc(OC)c(OC)cc3c2C#CCCO)cc1`, the IC50 is reported as > 79 µM (inactive). With `O=C(c1ccco1)N1CCN(Cc2nc3ccc([N+](=O)[O-])cc3c(=O)n2-c2ccccc2F)CC1` the IC50 was > 79 µM (inactive). For `COc1cc(/C=C/c2nc3ccccc3c(=O)n2-c2ccccc2O)ccc1O`, the IC50 was 20.6 µM. For `O=C(COc1ccc(F)cc1Cl)Nc1nc(-c2ccccn2)cs1`, the IC50 was > 79 µM (inactive). `COc1ccc(-c2ccc3c(c2)S(=O)(=O)c2cccc(C(=O)N4CCN(c5ccccn5)CC4)c2C3=O)cc1OC` was tested, and the IC50 was 13.7 µM. With `Cc1cc(C)c2ccc(N)nc2c1O` the IC50 was > 79 µM (inactive). With `CCOC(=O)C1=C(CC)Nc2ccccc2N=C1NC(=O)c1ccc(S(=O)(=O)N(C)C)cc1` the IC50 was > 79 µM (inactive). With `C[C@H](CO)N1C[C@H](C)[C@@H](CN(C)S(=O)(=O)c2ccccc2)Oc2ccc(NC(=O)Nc3ccccc3)cc2C1=O` the IC50 was 24.2 µM. In the case of `CCc1ccc(NC(=O)CSc2ccc(-c3ccccn3)nn2)cc1`, the IC50 is reported as > 79 µM (inactive). For `O=C(/C=C\c1cn(-c2ccccc2)nc1-c1ccc2c(c1)OCCO2)N1CCOCC1`, the IC50 was > 79 µM (inactive). `O=C(COc1ccccc1[N+](=O)[O-])Nc1ccc(N2CCN(C(=O)c3cccs3)CC2)cc1` showed an IC50 of 8.51 µM. For `NC(=O)c1cccc(Nc2nc(C(N)COCc3ccccc3)cs2)n1` (centres undefined), the IC50 was > 79 µM (inactive). With `COc1ccc(NC(=O)C(OC(=O)c2ccc([N+](=O)[O-])o2)c2ccccc2)cc1Cl` (centres undefined) the IC50 was > 79 µM (inactive). `CC(C)(C)OC(=O)CNC(=O)c1[nH]cnc1C(=O)NCC(=O)OCc1ccccc1` was tested, and the IC50 was > 79 µM (inactive). `CCC(c1nnnn1Cc1ccccc1)N1CCC(n2c(=O)[nH]c3ccccc32)CC1` (centres undefined) was tested, and the IC50 was > 79 µM (inactive). In the case of `CN1CCN(Cc2nc3ccccc3c(=O)[nH]2)CC1`, the IC50 is reported as > 79 µM (inactive). For `COc1cc(C(=O)N/N=C/c2ccc(OC(=O)c3ccccc3Cl)cc2)ccc1O`, the IC50 was > 79 µM (inactive). In the case of `Cc1ccccc1N=Cc1cc2c(cc1[N+](=O)[O-])OCO2`, the IC50 is reported as > 79 µM (inactive). For `Cc1ccc(NC(=O)c2nc[nH]c2C(=O)NCCCNC(=O)c2[nH]cnc2C(=O)Nc2ccc(C)cc2)cc1`, the IC50 was 21.5 µM. With `CCOc1cc(/C=C(\C#N)C(=O)Nc2ccc(S(N)(=O)=O)cc2)ccc1OCCN1CCOCC1` the IC50 was > 79 µM (inactive). `O=C(Nc1nc(-c2ccccn2)cs1)c1cccc(-n2cnnn2)c1` was tested, and the IC50 was > 79 µM (inactive). With `CC(=O)Oc1ccc(C(=O)OCC(=O)c2c(N)n(C)c(=O)n(C)c2=O)cc1OC(C)=O` the IC50 was 31.8 µM (inactive). `CCOC(=O)C1CCN(C(=O)c2ccc3c(=O)n4nc(Nc5ccccc5OC)sc4nc3c2)CC1` showed an IC50 of 19.3 µM. In the case of `CCCCn1nc(C(=O)Oc2ccc3c(C)cc(=O)oc3c2)c2ccccc2c1=O`, the IC50 is reported as > 79 µM (inactive). For `Cc1cc(Br)cc(C=Nc2ccc(N3CCOCC3)cc2)c1O`, the IC50 was 58.4 µM (inactive). Compound `O=c1oc2ccc3ccccc3c2cc1-c1nnc(-c2ccccc2)o1` has an IC50 of 17.3 µM. In the case of `O=C1COc2ccc(-c3n[nH]c(=O)c4ccccc34)cc2N1`, the IC50 is reported as > 79 µM (inactive).
